The test has as its target T1, penicillin-binding protein 3 (PBP3) (Pseudomonas aeruginosa, UniProt G3XD46).
T1 construct: gene ftsI; final PBP3 model contains residues 57–190, 213–490, and 501–561
The test can be described thus: X-ray crystal structure ([…] Å, soak); also Bocillin competition assay (IC50) and DSF thermal shift (about […] °C).

Experimental findings from paper PMC8519428, “Structural analysis of the boronic acid β-lactamase inhibitor vaborbactam binding to Pseudomonas aeruginosa penicillin-binding protein 3” (PLoS ONE, 2021) are described below.

T1 sequence (G3XD46 50-579): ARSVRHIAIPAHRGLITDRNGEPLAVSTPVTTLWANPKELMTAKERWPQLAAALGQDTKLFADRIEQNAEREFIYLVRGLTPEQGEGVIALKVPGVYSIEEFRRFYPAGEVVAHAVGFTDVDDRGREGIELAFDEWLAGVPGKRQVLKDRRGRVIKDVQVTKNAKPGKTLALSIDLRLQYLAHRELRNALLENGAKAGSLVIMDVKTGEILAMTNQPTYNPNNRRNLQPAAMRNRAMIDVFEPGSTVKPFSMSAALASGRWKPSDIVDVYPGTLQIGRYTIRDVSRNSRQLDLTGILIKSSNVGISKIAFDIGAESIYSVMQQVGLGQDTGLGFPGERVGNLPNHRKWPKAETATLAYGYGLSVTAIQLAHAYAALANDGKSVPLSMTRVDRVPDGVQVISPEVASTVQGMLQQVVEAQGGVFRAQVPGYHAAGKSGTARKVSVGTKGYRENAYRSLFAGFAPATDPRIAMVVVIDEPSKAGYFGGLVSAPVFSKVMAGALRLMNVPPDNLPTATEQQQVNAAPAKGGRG

In the case of `O=C(O)C[C@@H]1CC[C@H](NC(=O)Cc2cccs2)B(O)O1` [vaborbactam], the IC50 came to 262 µM.

The term IC50 denotes the midpoint of a concentration-inhibition curve.
